From PMC5673888, “Crystal structure of tripartite-type ABC transporter MacB from Acinetobacter baumannii” (Nature Communications, 2017)

Key:
MacB = molecular target: T1, MacB (Acinetobacter baumannii, UniProt A0A0D8G707); assay: X-ray crystal structure of complex ([…] Å); details: co-crystallized with 10 mM ADPβS, 2 mM MgCl2; composite nucleotide-binding sites at NBD dimer interface
T1 construct: full length (664 residues inferred: stop at Leu655 removes C-terminal 10), N-terminal His6 tag, E. coli BL21(DE3), UDM-solubilized homodimer

[1] = molecular target: MacB from Acinetobacter baumannii (Acinetobacter baumannii); assay: crystal structure; MacB in 0.05% UDM, 10 mM ADPβS and 2 mM MgCl2 added; sitting drop vapour diffusion at 25 °C, 1.2–1.3 M sodium citrate, 100 mM Na-HEPES pH 7.2; Se-Met crystal with 2 mM ATP instead of ADPβS; 3.4 Å

| Compound | X-ray crystal structure of complex (3.4 Å) (MacB) | stoichiometry N [1] |
| --- | --- | --- |
| Nc1ncnc2c1ncn2[C@@H]1O[C@H](COP(=O)(O)OP(=O)(O)S)[C@@H](O)[C@H]1O (some centres unmarked) [ADPβS] | MacB was crystallized in the presence of adenosine-5′-(β-thio)-diphosphate (ADPβS) |  |
| MacB from Acinetobacter baumannii (from UniProt A0A0D8G707 1-664) (natural protein) |  | 2 |
